Measured values taken from patent US9040725B2, “Benzocycloheptane and benzoxepine derivatives” (Janssen Pharmaceutica NV, priority 2008, dated 2015).
Counter-ions that a name gives are not always drawn. Like-named read-outs stand apart in the source and are kept apart here. Ends that are not written are not given here.

Experiments:
[1] = biological target: T1, GHS1A-receptor (Homo sapiens, UniProt Q92847); assay: Ghrelin-agonism in HEK293 cells (intracellular calcium, FLIPR); format: cell-based; details: HEK293 cells permanently transfected with GHS1A-receptor, calcium fluorescence (fluo-4 or Kit-3), EC50 in M, read-out: pEC50 (converted)
T1 construct: expressed in transfected cells; host or cells: HEK293
T1 sequence (Q92847 whole entry): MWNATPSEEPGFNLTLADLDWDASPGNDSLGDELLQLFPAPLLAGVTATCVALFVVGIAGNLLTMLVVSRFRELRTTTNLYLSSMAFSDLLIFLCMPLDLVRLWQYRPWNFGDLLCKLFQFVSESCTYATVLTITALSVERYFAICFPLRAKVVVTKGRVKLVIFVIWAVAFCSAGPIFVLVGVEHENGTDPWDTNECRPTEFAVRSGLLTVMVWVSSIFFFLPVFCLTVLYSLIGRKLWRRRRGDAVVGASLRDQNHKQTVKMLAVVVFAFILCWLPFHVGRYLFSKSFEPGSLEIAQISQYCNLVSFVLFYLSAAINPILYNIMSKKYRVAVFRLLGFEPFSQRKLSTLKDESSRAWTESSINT
Method: One day before the experiment, HEK293 cells, permanently transfected with the gene sequence for expression of the GHS1A-receptor, were seeded in poly-D-Lysine coated 96-well plates with clear bottom, and allowed to grow to […] of confluence on the next day.
Then, cells were incubated with the calcium-sensitive intracellular fluorescent probe fluo-4 or Kit-3 for 1 h at 37° C. Fluorescence representing free intracellular calcium in the cells was measured in a FLIPR-system (excitation at 488 nm, emission>520 nm). Test compounds were added to each well at the desired concentration and the fluorescence signal was simultaneously recorded in all wells. Release of intracellular calcium triggered by activation of the receptors upon addition of the test compound was measured as the fluorescence emitted from the complex of calcium and the fluorescent probe. The drug effect on fluorescence intensity was expressed relative to the maximal fluorescence intensity measured in cells exposed to the calcium-ionophore ionomycin.

[2] = test system: GHS1A-r+/+ (WT) mice; assay: Acceleration of gastric emptying in wild type (GHS1A-r+/+, WT) mice; format: in vivo; details: 10 mg/kg subcutaneous 30 minutes before test meal, 15 minutes after meal
Method: (§1) FIG. 1 describes the gastric content (measured as extinction units of phenol red) remaining 15 minutes after administration of a phenol red containing test meal by oral gavage in GHS1A-r^+/+ (WT) and GHS1A-r^−/− (KO) mice pretreated with saline (Vehicle) or compound 3 (10 mg/kg SC) 30 minutes before the meal (individual data and mean, n=3).
(§2) Male NMRI-mice weighing around 25 gram were fasted for 20 h and had free access to drinking water. Test compounds were administered to the animals by subcutaneous route 30 min before they were given a test meal by oral gavage. The test meal consisted of 0.3 ml of a chocolate nutridrink solution (1.0 kcal/ml) containing phenol red marker (5 mg/ml). Fifteen min after administration of the meal, the mice were sacrificed by CO2 gas inhalation. The phenol red content remaining in the stomach (extracted from the stomach with NaOH) was determined at 557 nm in a spectrophotometer and expressed as extinction units. Small intestinal propulsion was determined as the distance traveled by the phenol red marker through the intestine and expressed as a percentage of total small intestinal length (from the pylorus to the ileo-cecal junction). […]

[3] = test system: NMRI-mice; assay: Acceleration of gastric emptying and small intestinal propulsion in NMRI-mice; format: in vivo; details: Mus musculus, sc, lowest active dose, subcutaneous, 30 min before phenol red test meal
Method: Male NMRI-mice weighing around 25 gram were fasted for 20 h and had free access to drinking water. Test compounds were administered to the animals by subcutaneous route 30 min before they were given a test meal by oral gavage. The test meal consisted of 0.3 ml of a chocolate nutridrink solution (1.0 kcal/ml) containing phenol red marker (5 mg/ml). Fifteen min after administration of the meal, the mice were sacrificed by CO2 gas inhalation. The phenol red content remaining in the stomach (extracted from the stomach with NaOH) was determined at 557 nm in a spectrophotometer and expressed as extinction units. Small intestinal propulsion was determined as the distance traveled by the phenol red marker through the intestine and expressed as a percentage of total small intestinal length (from the pylorus to the ileo-cecal junction).
The lowest dose that was active for each parameter was noted as the lowest active dose (LAD). Table 12 discloses LAD values.

[4] = test system: GHS1A-r-/- (KO) mice; assay: Acceleration of gastric emptying in GHS1A-r-/- (KO) mice; format: in vivo; details: 10 mg/kg subcutaneous 30 minutes before test meal, 15 minutes after meal
Method: as §1, §2

[5] = test system: mice; assay: In house study: gastric emptying of a test meal after intravenous ghrelin in mice; format: in vivo; details: intravenous administration to mice; 95% confidence interval 0.058-0.174
From the text: (§3) These observations confirm that the gastrointestinal pro-kinetic properties of ghrelin-ligands are mediated by direct interaction with GHS1A-r. Small molecules showing affinity for the GHS1A-r and activating it are therefore anticipated to stimulate gastrointestinal motility in general, and gastric emptying in particular.

[6] = test system: transgenic mice with a deletion of GHS1A-r; assay: In house study: gastric emptying after ghrelin in transgenic mice with a deletion of GHS1A-r; format: in vivo; details: administered up to 2.5 mg/kg
From the text: as §3

[7] = active when >60% of animals had phenol red front beyond 85% of small intestinal length, read-out: LAD (mg/kg) Small intestinal propulsion
[8] = stomach content 15 min after meal, active when >60% of animals below 0.9 extinction units, read-out: LAD (mg/kg) Gastric emptying

Row | Compound | melting point [°C] | EC50 [1] [nM] | other results
1 | CC(C)NCCCC1(O)c2ccccc2CCCC1c1cnc2ccccc2c1 (racemic) [Compound 86] | 115.2 | 631 | –
2 | COc1cccc(C2CCCc3ccccc3C2(O)CCCN2CCN(C(C)=O)CC2)c1 (racemic) [Compound 63] | 153 | > 10000 | –
3 | Cc1cccc(C2CCCc3ccccc3C2(O)CCCN2CCOCC2)c1 (racemic) (as salt: oxalate) [Compound 25] | 204.8 | – | –
4 | Cc1ccc(C2CCCc3ccccc3C2(O)CCCN2CCCC2)cc1 (racemic) [Compound 28] | 139.8 | 158 | minimal effective dose [3, 7]: > 10 mg/kg; minimal effective dose [3, 8]: > 10 mg/kg
5 | Cc1ccc(C2CCCc3ccccc3C2(O)CCCN2CCN(C)CC2)cc1 (racemic) (as salt: oxalate) [Compound 33] | 219 | – | –
6 | CC(=O)N1CCN(CCCC2(O)c3ccccc3CCCC2c2ccc(C)cc2)CC1 (racemic) [Compound 34] | 216.2 | 3160 | –
7 | OC1(CCCN2CCCCC2)c2ccccc2CCCC1c1ccc(F)cc1F (racemic) (as salt: oxalate) [Compound 59] | 211.5 | – | –
8 | CCN(CC)CCCC1(O)c2ccccc2CCCC1c1cccc(Cl)c1 (racemic) (as salt: oxalate) [Compound 41] | 160.3 | – | –
9 | CNCCCC1(O)c2ccccc2CCCC1c1ccccc1 (racemic) (as salt: oxalate) [Compound 19] | 129 | – | –
10 | OC1(CCCN2CCCCC2)c2ccccc2CCCC1c1ccc(Cl)cc1 (racemic) (as salt: oxalate) [Compound 50] | 201.1 | – | –
11 | ghrelin (GSSFLSPEHQRVQQRKESKKPPAKLQPR; ends and bridges not checked; UniProt Q9UBU3 24-51, looked up) ["an endogenous peptide hormone ... the natural ligand for the type 1 growth hormone secretagogue receptor (GHS1A-r)"] | – | – | ED50 stimulation of gastric emptying of a test meal [5]: 0.100 mg/kg; effect on gastric emptying [6]: no effect
12 | COc1cccc([C@H]2CCCc3ccccc3[C@]2(O)CCCN(C)C)c1 (racemic) (as salt: oxalate) [Compound 14, (±)cis-5-(3-Dimethylamino-propyl)-6-(3-methoxy-phenyl)-6,7,8,9-tetrahydro-5H-benzocyclohepten-5-ol oxalate] | 108 | – | –

Continued, in another order:

Row | melting point [°C] | EC50 [1] [nM] | Compound | other results
13 | 165.1 | > 10000 | COc1ccc(C2CCCc3ccccc3C2(O)CCCN2CCN(C(C)=O)CC2)cc1 (racemic) [Compound 71] | –
14 | – | 20 | CN(C)CCCC1(O)c2ccccc2CCCC1c1ccc(Cl)cc1 (single isomer, unassigned) [Compound 3] | meal content remaining in the stomach versus vehicle [2]: emptied more than vehicle treated WT mice; minimal effective dose [3, 7]: 0.63 mg/kg; minimal effective dose [3, 8]: 0.63 mg/kg; meal content remaining in the stomach versus vehicle [4]: no difference in remaining gastric content
15 | 150.3 | 100 | CN(C)CCCC1(O)c2ccccc2CCCC1c1cnc2ccccc2c1 (racemic) [Compound 85] | minimal effective dose [3, 7]: > 10 mg/kg; minimal effective dose [3, 8]: > 10 mg/kg
16 | 168.7 | – | CN(C)CCCC1(O)c2ccccc2CCCC1c1ccc(Cl)cc1 (single isomer, unassigned) (as salt: oxalate) [Compound 3] | –
17 | 141.4 | 6310 | CCN(CC)CCCC1(O)c2ccccc2CCCC1c1ccc(O)cc1 (racemic) [Compound 36] | –
18 | 144.9 | – | COCCN(C)CCCC1(O)c2ccccc2CCCC1c1ccc(C)cc1 (racemic) (as salt: oxalate) [Compound 30] | –
19 | 161.8 | – | Cc1ccc(C2CCCc3ccccc3C2(O)CCCN(C)C)cc1 (racemic) (as salt: oxalate) [Compound 29] | –
20 | 191.1 | – | COCCN(C)CCCC1(O)c2ccccc2CCCC1c1ccc(O)cc1 (racemic) (as salt: oxalate) [Compound 37] | –
21 | 132.2 | – | COCCN(C)CCCC1(O)c2ccccc2CCCC1c1ccc(OC)cc1 (racemic) (as salt: oxalate) [Compound 70] | –
22 | 100 | – | COc1ccc(C2CCCc3ccccc3C2(O)CCCN(C)C)cc1 (racemic) (as salt: oxalate) [Compound 66] | –
23 | 134.3 | 7940 | CN(C)CCCC1(O)c2ccccc2CCCC1c1cncnc1 (racemic) [Compound 84] | –
24 | 137.4 | – | CNCCCC1(O)c2ccccc2CCCC1c1cccc(C)c1 (racemic) (as salt: oxalate) [Compound 22] | –
